Experimental findings from patent publication US9938281B2 (Merck Sharp & Dohme Corp., priority 2012, dated 2018) are described below.

Test [1] deals with T1, PI3K-alpha (Homo sapiens, UniProt P42336).
T1 construct: purchased Upstate; Millipore 14-602
The experiment in a line: HTRF PI3K biochemical assay, alpha isoform. Particulars: ratio PI3K-alpha IC50 value / PI3K-delta IC50 value.

The target of test [2] is T2, PI3K-delta (Homo sapiens, UniProt O00329).
T2 construct: purchased Upstate; Millipore 14-604
The test is described as follows: HTRF PI3K biochemical assay, delta isoform. Particulars: form screened (neutral or TFA salt) given, read-out: PI3Kdelta IC50. (In general: In TR-FRET formats the signal depends on donor and acceptor labels being close together.)

T1 sequence (P42336 whole entry): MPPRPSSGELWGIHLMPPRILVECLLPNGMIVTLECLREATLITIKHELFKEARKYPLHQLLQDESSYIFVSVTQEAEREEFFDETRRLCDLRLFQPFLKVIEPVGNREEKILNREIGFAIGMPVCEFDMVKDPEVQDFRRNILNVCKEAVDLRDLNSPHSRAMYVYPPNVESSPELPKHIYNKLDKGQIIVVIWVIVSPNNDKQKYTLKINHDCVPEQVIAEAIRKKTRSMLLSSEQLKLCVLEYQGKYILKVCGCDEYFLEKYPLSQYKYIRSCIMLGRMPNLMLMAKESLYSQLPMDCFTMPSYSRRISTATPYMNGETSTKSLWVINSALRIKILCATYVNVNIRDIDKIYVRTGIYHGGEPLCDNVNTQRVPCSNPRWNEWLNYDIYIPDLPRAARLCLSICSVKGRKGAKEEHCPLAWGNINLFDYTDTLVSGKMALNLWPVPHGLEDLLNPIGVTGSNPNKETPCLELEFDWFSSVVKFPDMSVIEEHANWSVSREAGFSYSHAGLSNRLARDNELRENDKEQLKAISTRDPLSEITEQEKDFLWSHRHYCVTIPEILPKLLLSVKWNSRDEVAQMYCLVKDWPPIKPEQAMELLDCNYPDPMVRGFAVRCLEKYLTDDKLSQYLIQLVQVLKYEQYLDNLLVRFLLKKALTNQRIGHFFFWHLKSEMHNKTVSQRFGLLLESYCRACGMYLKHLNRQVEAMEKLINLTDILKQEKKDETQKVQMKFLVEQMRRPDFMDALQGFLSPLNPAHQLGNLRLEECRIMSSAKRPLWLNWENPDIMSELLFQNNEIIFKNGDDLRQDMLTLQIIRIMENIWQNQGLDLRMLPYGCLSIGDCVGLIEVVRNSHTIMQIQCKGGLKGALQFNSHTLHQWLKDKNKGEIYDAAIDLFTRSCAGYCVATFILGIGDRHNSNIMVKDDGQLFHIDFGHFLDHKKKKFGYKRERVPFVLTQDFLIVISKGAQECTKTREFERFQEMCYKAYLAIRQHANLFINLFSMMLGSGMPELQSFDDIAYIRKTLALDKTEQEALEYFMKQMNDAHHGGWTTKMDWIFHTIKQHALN
T1 sequence (P27986 whole entry partner): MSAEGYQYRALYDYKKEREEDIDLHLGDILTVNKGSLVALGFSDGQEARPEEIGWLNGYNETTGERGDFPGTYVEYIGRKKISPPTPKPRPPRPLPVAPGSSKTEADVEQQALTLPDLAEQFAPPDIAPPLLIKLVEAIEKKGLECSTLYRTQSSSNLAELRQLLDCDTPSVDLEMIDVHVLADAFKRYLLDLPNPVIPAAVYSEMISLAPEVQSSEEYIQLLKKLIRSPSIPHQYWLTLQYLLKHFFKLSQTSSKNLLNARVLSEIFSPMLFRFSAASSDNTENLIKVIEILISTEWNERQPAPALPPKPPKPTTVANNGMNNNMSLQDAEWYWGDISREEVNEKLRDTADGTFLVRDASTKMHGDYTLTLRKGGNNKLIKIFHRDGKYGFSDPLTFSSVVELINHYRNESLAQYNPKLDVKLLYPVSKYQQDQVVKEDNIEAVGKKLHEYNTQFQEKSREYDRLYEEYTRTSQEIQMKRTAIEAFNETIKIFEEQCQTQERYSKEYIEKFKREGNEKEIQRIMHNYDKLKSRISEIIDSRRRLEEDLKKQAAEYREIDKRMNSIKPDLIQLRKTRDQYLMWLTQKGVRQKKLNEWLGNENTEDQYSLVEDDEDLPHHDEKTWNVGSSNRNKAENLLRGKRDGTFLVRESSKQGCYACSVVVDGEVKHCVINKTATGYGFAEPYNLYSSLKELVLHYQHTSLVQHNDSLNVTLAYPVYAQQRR
T2 sequence (O00329 whole entry): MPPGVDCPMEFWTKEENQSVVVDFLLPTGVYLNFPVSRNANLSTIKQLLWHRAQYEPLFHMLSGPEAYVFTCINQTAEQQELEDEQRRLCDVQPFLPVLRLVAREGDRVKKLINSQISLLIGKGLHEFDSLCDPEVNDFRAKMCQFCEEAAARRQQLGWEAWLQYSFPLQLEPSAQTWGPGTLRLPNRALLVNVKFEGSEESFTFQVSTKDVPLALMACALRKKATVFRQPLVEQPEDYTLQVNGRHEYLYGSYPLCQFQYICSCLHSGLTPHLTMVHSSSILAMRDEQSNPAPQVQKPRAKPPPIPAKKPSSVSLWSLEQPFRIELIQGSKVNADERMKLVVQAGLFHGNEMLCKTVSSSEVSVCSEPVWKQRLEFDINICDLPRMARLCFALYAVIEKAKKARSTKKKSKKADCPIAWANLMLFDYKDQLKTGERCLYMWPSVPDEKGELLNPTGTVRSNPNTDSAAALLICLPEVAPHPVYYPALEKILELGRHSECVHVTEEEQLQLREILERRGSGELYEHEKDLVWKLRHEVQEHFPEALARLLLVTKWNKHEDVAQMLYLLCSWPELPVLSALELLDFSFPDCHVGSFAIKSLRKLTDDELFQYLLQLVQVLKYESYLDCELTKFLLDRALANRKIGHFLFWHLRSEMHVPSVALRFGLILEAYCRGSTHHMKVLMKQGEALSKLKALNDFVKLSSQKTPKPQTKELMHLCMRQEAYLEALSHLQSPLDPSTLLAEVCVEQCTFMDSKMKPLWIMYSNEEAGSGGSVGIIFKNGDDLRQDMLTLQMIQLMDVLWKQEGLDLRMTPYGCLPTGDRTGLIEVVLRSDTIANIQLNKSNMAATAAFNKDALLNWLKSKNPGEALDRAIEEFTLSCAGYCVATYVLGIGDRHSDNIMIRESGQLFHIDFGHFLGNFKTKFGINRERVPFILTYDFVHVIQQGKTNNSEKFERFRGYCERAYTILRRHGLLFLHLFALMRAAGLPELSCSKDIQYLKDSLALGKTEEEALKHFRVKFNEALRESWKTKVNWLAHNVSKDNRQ
T2 sequence (P27986 whole entry partner): as the sequence (P27986 whole entry partner) above

For the molecule `CCn1c(-c2cnc(C)nc2)nc2c(N[C@H]3CCN(c4nccc5sccc45)C3)ncnc21` [Compound 4-13, 9-ethyl-8-(2-methylpyrimidin-5-yl)-N-[(3S)-1-thieno[3,2-c]pyridin-4-y 1pyrrolidin-3-yl]-9H-purin-6-amine], the “Selectivity versus PI3Kalpha” value in test [1] is reported as above 10. The IC50 in test [2] was determined as 14 nM.
On to `CCn1c(-c2cnc(C)nc2)nc2c(N[C@H]3CCN(C(=O)OC(C)(C)C)C3)ncnc21` [Compound 1-13, (S)-tert-butyl 3-((9-ethyl-8-(2-methylpyrimidin-5-yl)-9H-purin-6-yl)amino)pyrrolidine-1-carboxylate], for which the “Selectivity versus PI3Kalpha” value in test [1] is reported as above 10. Also, the IC50 in test [2] is below 1 nM.
Turning to `CCn1c(-c2cnc(C)nc2)nc2c(N[C@H]3CCN(C(=O)C4CC(=O)N(C(C)C)C4)C3)ncnc21` (mixture of isomers) [Compound 2-81, (R and S)-4-{[(3S)-3-{[9-ethyl-8-(2-methylpyrimidin-5-yl)-9H-purin-6-yl]amino}pyrrolidin-1-yl]carbonyl}-1-(1-methylethyl)pyrrolidin-2-one], in test [1], the “Selectivity versus PI3Kalpha” value is reported as above 10. Moreover, the IC50 in test [2] turned out to be 13 nM.
For the molecule `CCn1c(C(C)C)nc2c(N[C@H]3CCN(C(=O)C4CC4)C3)ncnc21` [Compound 7-5, N-[(3S)-1-(cyclopropylcarbonyl)pyrrolidin-3-yl]-9-ethyl-8-(1-methylethyl)-9H-purin-6-amine], the “Selectivity versus PI3Kalpha” value in test [1] is on record as above 10. In addition, the IC50 in test [2] was found to be 130 nM.
Taken in the same sequence, the figures for `CCn1c(-c2cnc(C)nc2)nc2c(N[C@H]3CCN(C(=O)OC)C3)ncnc21` [Compound 13-2, methyl (3S)-3-{[9-ethyl-8-(2-methylpyrimidin-5-yl)-9H-purin-6-yl]amino}pyrrolidine-l-carboxylate] were above 10 and 9.2 nM.
For the molecule `CCn1c(-c2cnc(C)nc2)nc2c(NC3CN(C(=O)C4CC4)CC3O)ncnc21` (single isomer, unassigned) [Compound 2-97, 1-(cyclopropylcarbonyl)-4-{(3R,4R) or (3S,4S)-[9-ethyl-8-(2-methylpyrimidin-5-yl)-9H-purin-6-yl]amino}pyrrolidin-3-ol], in test [1], the “Selectivity versus PI3Kalpha” value is above 10. The IC50 in test [2] is 2.9 nM.
On to `CCC(=O)N1CC[C@H](Nc2ncnc3c2nc(-c2ccc(S(C)(=O)=O)cc2)n3C)C1` [Compound 3-27, 9-methyl-8-[4-(methylsulfonyl)phenyl]-N-[(3S)-1-propanoylpyrrolidin-3-yl]-9H-purin-6-amine], for which, in test [1], the “Selectivity versus PI3Kalpha” value is above 10. In addition, the IC50 in test [2] amounted to 39 nM.
As to `CCC(=O)N1CC[C@H](Nc2ncnc3c2nc(-c2cnc4[nH]ccc4c2)n3C)C1` [Compound 3-2, (S)-1-(3-((9-methyl-8-(1H-pyrrolo[2,3-b]pyridin-5-yl)-9H-purin-6-yl)amino)pyrrolidin-1-yl)propan-1-one], in test [1], the “Selectivity versus PI3Kalpha” value was above 10. For the same molecule, the IC50 in test [2] was below 1 nM.
Taken in the same sequence, the figures for `CCn1c(-c2cnc(C)nc2)nc2c(N[C@H]3CCN(C(=O)NCC4CC4)C3)ncnc21` [Compound 12-7, (3S)-N-(cyclopropylmethyl)-3-{[9-ethyl-8-(2-methylpyrimidin-5-yl)-9H-purin-6-yl]amino}pyrrolidine-1-carboxamide] were above 10 and 6.4 nM.
In the case of `CCn1c(-c2cnc(C)nc2)nc2c(N[C@H]3C[C@H](C(=O)OC)N(C(=O)C4CC4)C3)ncnc21` [Compound 2-53, methyl (4S)-1-(cyclopropylcarbonyl)-4-{[9-ethyl-8-(2-methylpyrimidin-5-yl)-9H-purin-6-yl]amino}-D-prolinate], the “Selectivity versus PI3Kalpha” value in test [1] is recorded as above 10. Besides, the IC50 in test [2] is 4.7 nM.
In the case of `CCn1c(-c2cnc(C)nc2)nc2c(N[C@H]3CCN(C(=O)C4(O)CC4)C3)ncnc21` [Compound 2-66, 1-{[(3S)-3-{[9-ethyl-8-(2-methylpyrimidin-5-yl)-9H-purin-6-yl]amino}pyrrolidin-1-yl]carbonyl}cyclopropanol], in test [1], the “Selectivity versus PI3Kalpha” value was above 10. Besides, the IC50 in test [2] stood at 10 nM.
The corresponding values for `CCn1c(-c2cnc(C)nc2)nc2c(N[C@H]3CCN(C(=O)c4nc(C)oc4C)C3)ncnc21` [Compound 2-19, (S)-(2,5-dimethyloxazol-4-yl)(3-((9-ethyl-8-(2-methylpyrimidin-5-yl)-9H-purin-6-yl)amino)pyrrolidin-1-yl)methanone] are above 10 and 2.1 nM.
With `CCC(=O)N1CC[C@H](N(C)c2ncnc3c2nc(-c2cnc(C(C)(C)C)s2)n3CC)C1` [Compound 2-11, (S)-1-(3-((8-(2-(tert-butyl)thiazol-5-yl)-9-ethyl-9H-purin-6-yl)(methyl)amino)pyrrolidin-1-yl)propan-1-one], the “Selectivity versus PI3Kalpha” value in test [1] was above 10. In test [2], the IC50 was determined as 3.6 nM.
Turning to `CCn1c(CCOC)nc2c(N[C@H]3CCN(C(=O)C4CC4)C3)ncnc21` [Compound 7-22, N-[(3S)-1-(cyclopropylcarbonyl)pyrrolidin-3-yl]-9-ethyl-8-(2-methoxyethyl)-9H-purin-6-amine], the “Selectivity versus PI3Kalpha” value in test [1] was above 10. Also, the IC50 in test [2] was found to be 230 nM.
The corresponding values for `CCn1c(-c2ccc(C(F)(F)F)nc2)nc2c(N[C@H]3CCN(C(=O)[C@@H]4CC4(C)C)C3)ncnc21` [Compound 2-51, N-[(3S)-1-{[(1R)-2,2-dimethylcyclopropyl]carbonyl}pyrrolidin-3-yl]-9-ethyl-8-[6-(trifluoromethyl)pyridin-3-yl]-9H-purin-6-amine] are above 10 and below 1 nM.
As to `CCn1c(-c2ccc(OC)nc2)nc2c(N[C@H]3CCN(C(=O)C4CC(F)(F)C4)C3)ncnc21` [Compound 3A-8, N-{(3S)-1-[(3,3-difluorocyclobutyl)carbonyl]pyrrolidin-3-yl}-9-ethyl-8-(6-methoxypyridin-3-yl)-9H-purin-6-amine], the “Selectivity versus PI3Kalpha” value in test [1] was above 10. The IC50 in test [2] is below 1 nM.
Turning to `CCn1c(-c2cncc(-c3ccccc3)c2)nc2c(N[C@H]3CCN(C(=O)C4CC4)C3)ncnc21` [Compound 3-37, N-[(3S)-1-(cyclopropylcarbonyl)pyrrolidin-3-yl]-9-ethyl-8-(5-phenylpyridin-3-yl)-9H-purin-6-amine], the “Selectivity versus PI3Kalpha” value in test [1] is on record as above 10. The IC50 in test [2] amounted to 5.4 nM.
On to `CCC(=O)N1CC[C@H](Nc2ncnc3c2nc(-c2cnc(C(C)(C)C)s2)n3CC)C1` [Compound 2-10, (S)-1-(3-((8-(2-(tert-butyl)thiazol-5-yl)-9-ethyl-9H-purin-6-yl)amino)pyrrolidin-1-yl)propan-1-one], for which the “Selectivity versus PI3Kalpha” value in test [1] was above 10. The IC50 in test [2] is below 1 nM.
`CCn1c(-c2cnc(C)nc2)nc2c(N[C@H]3CCN(C(=O)OCC(C)(C)C)C3)ncnc21` [Compound 13-4, 2,2-dimethylpropyl (3S)-3-{[9-ethyl-8-(2-methylpyrimidin-5-yl)-9H-purin-6-yl]amino}pyrrolidine-1-carboxylate]: the “Selectivity versus PI3Kalpha” value in test [1] is given as above 10. The IC50 in test [2] was determined as 8.2 nM.
The corresponding values for `CCC(=O)N1CC[C@H](Nc2ncnc3c2nc(-c2cnn(CC)c2C)n3C)C1` [Compound 2-3, (S)-1-(3-((8-(1-ethyl-5-methyl-1H-pyrazol-4-yl)-9-methyl-9H-purin-6-yl)amino)pyrrolidin-1-yl)propan-1-one] are above 10 and below 1 nM.
